Measurements taken from article PMC8429736, “Pharmacological characterization of mutant huntingtin aggregate-directed PET imaging tracer candidates” (Scientific Reports, 2021).

Tests used:
[1] = molecular target: phospho-Tau tangles (AT8 antibody) (Homo sapiens, UniProt P10636); assay: HR ARG co-registration with AT8 antibody, human AD brain sections; format: binding; details: 10 nM CHDI-180, 10 nM CHDI-626, 0.1 nM PiB, 1 nM T808
[2] = molecular target: beta amyloid plaques (6E10 antibody) (Homo sapiens, UniProt P05067); assay: HR ARG co-registration with 6E10 antibody, human AD brain sections; format: binding; details: 10 nM CHDI-180, 10 nM CHDI-626, 0.1 nM PiB, 1 nM T808
Sequence of beta amyloid plaques (6E10 antibody) (P05067 672-713 limits assumed): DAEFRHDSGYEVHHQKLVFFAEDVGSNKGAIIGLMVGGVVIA

[3] = test system: beta amyloid/tau aggregates in post-mortem AD patient brain homogenates; assay: ADbh RBA competition format; format: binding, human; details: for displacement of bound 5: radioligand 5
Experimental: (§1) For RBA in vitro binding assays, brain tissue was sliced (50 µm), weighed and homogenized in PBS (Gibco, 14190-94), 0.1% BSA with a glass pestle (10 strokes) at a concentration of 12–15 mg wet tissue per mL buffer. The crude homogenate concentration was then adjusted to 10 mg/mL (wet tissue) and stored as single-use aliquots at -80 °C.
RBA experiments using Alzheimer’s disease brain homogenates (ADbh RBA) followed the same assay principle as the RBA with recombinant HTT protein, using 0.68 mg/mL homogenate (100 µg per well with 150 µL assay volume) in assay buffer PBS, 0.01% Pluronic F127 (Sigma. P2443) and 1% DMSO after compound addition. […] Incubation at room temperature was conducted for 20 min after compound addition and for 5 h after radioligand addition. For the competition format, raw cpm were normalized towards assay controls as before, to obtain inhibition between 0 and 100%. For saturation binding, raw cpm were converted into nM as before, using a calibration line of total added radioligand, and normalized to mg of added homogenate to finally obtain pmol/mg.

Q46 aggregates = assay: RBA competition binding against tritiated 3, Q46 aggregates; details: 0.3 nM tritiated 3 as radioligand; 1 µM aggregates; mean ± SD
Experimental: (§2) For the competition assay format, Q46 or Exon1-Q46 aggregates at 1 µM (sample volume 150 µL) were pre-incubated in a 96-well round bottom plate (Corning, #3365) for 20 min with test compounds at room temperature (assay buffer 50 mM Tris–HCl pH 8.0, 150 mM NaCl). […] Radioligand 3 at 0.3 nM was added and incubated for 1 h at 37 °C.
(§3) Samples were then transferred onto a 96-well GF/B filter plate (Perkin Elmer, #6005177) using a Filtermate Harvester, aspirated by vacuum and wells washed twice with 200 µL PBS. After drying the filter plates for 1 h at 55 °C the back of the plate was sealed with aluminum cover and 30 µL of scintillation fluid (Perkin Elmer, #6013641) per well was added. The tops of the plates were sealed, and the plates were incubated for 15 min in the dark and counted in a TopCount or MicroBeta2 reader (both Perkin Elmer).
(§4) Raw sample data collected as counts per minute (cpm) were normalized towards assay controls: 0% inhibition = radioligand + protein + vehicle, 100% inhibition = radioligand + protein + 1 µM unlabeled ligand. A 4-parameter […] fit was applied to generate IC50 values.

Exon1-Q46 aggregates = molecular target: T1, Exon1-Q46 aggregates (Homo sapiens, UniProt P42858, INS38QQQQQQQQQQQQQQQQQQQQQQQQQ); assay: RBA competition binding against tritiated 3, Exon1-Q46 aggregates; details: 0.3 nM tritiated 3 as radioligand; 1 µM aggregates; mean ± SD; read-out: IC50 Exon1-Q46
T1 construct: MBP-HTT(1-89)Q46-His(6x); MBP (N, cleaved yes); made in house; host or cells: E. coli BL21 (DE3)
T1 sequence (P42858 with tags, fused parts or gaps with the stated changes): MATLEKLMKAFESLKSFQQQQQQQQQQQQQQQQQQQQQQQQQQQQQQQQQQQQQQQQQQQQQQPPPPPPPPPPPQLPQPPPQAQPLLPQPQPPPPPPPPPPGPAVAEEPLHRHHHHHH
Experimental: as §2, §3, §4

[4] = test system: beta amyloid/tau aggregates in post-mortem AD patient brain homogenates; assay: ADbh RBA saturation (direct) binding; set-up: species or system human; details: 100 µg homogenate per well
Experimental: as §1
RBA experiments using Alzheimer’s disease brain homogenates (ADbh RBA) followed the same assay principle as the RBA with recombinant HTT protein, using 0.68 mg/mL homogenate (100 µg per well with 150 µL assay volume) in assay buffer PBS, 0.01% Pluronic F127 (Sigma. P2443) and 1% DMSO after compound addition. Competition experiments were conducted with 0.5 nM radioligand 4 and 50 µg homogenate per well. Incubation at room temperature was conducted for 20 min after compound addition and for 5 h after radioligand addition. For the competition format, raw cpm were normalized towards assay controls as before, to obtain inhibition between 0 and 100%. For saturation binding, raw cpm were converted into nM as before, using a calibration line of total added radioligand, and normalized to mg of added homogenate to finally obtain pmol/mg.

Sequence of phospho-Tau tangles (AT8 antibody) (P10636 623-695 limits assumed): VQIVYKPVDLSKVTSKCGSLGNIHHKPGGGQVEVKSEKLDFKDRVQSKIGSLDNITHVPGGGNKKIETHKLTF

co-registration with AT8-positive phospho-Tau immunoreactivity [1]	co-registration with 6E10-positive beta amyloid plaques [2]	displacement of bound 5 [3]	IC50 (Q46 aggregates)	IC50 (Exon1-Q46 aggregates)	displacement of 4 at 0.1 µM ([3]; radioligand 4, compound 0.1 µM)	Bmax, AD brain homogenate [4]	Kd [4]	SMILES	heterologous competition with radioligand 4 ([3]; radioligand 4)
co-registered with AT8	not with 6E10 antibody	~ 50%	> 0.333 µM	> 0.333 µM	–	–	–	FCCC1CCN(c2ccn3c(n2)nc2ccccc23)CC1 [Compound T808]	could not compete
not with AT8 immunoreactivity	–	complete displacement	–	–	fully displace	10.5 pmol/mg	–	[11CH3]Nc1ccc(-c2nc3ccc(O)cc3s2)cc1 [PiB]	complete displacement
–	–	complete displacement	–	–	–	–	–	CNc1ccc(-c2nc3ccc(O)cc3s2)cc1F [Flutemetamol]	complete displacement
–	–	–	> 0.333 µM	0.0725 ± 0.0004 µM	–	–	0.0034 µM	CNc1ccc(-c2nc3ccc(O)cc3s2)cc1 [PiB]	–
